“Also recorded” adds a separate entry of the source. Structures can show the parent of a compound that is named as a salt.
Assays:
[1] = Plasma concentrations of d6-DM, d6-DM metabolites and Q by CYP2D6 metabolizer group; type: in vivo, human; details: for Plasma concentration/exposure in relation to d6-DM dose of AVP-786: AVP-786-28 vs AVP-786-42.63; for Changes in plasma concentrations from Week 6 to Week 12: all patients combined, sample 0-3 hours after morning dose; for Plasma concentration by CYP2D6 metabolizer group: poor, intermediate, extensive, ultra-rapid metabolizers
Experimental: Plasma samples were separated by centrifugation and frozen at −20° C. until assayed at the analytical unit.

sigma-1 receptor = sigma-1 receptor (Homo sapiens, UniProt Q99720); details: cited from earlier work
P-glycoprotein = P-glycoprotein (Homo sapiens, UniProt P08183); details: cited from earlier work
P-glycoprotein, sequence (P08183 whole entry): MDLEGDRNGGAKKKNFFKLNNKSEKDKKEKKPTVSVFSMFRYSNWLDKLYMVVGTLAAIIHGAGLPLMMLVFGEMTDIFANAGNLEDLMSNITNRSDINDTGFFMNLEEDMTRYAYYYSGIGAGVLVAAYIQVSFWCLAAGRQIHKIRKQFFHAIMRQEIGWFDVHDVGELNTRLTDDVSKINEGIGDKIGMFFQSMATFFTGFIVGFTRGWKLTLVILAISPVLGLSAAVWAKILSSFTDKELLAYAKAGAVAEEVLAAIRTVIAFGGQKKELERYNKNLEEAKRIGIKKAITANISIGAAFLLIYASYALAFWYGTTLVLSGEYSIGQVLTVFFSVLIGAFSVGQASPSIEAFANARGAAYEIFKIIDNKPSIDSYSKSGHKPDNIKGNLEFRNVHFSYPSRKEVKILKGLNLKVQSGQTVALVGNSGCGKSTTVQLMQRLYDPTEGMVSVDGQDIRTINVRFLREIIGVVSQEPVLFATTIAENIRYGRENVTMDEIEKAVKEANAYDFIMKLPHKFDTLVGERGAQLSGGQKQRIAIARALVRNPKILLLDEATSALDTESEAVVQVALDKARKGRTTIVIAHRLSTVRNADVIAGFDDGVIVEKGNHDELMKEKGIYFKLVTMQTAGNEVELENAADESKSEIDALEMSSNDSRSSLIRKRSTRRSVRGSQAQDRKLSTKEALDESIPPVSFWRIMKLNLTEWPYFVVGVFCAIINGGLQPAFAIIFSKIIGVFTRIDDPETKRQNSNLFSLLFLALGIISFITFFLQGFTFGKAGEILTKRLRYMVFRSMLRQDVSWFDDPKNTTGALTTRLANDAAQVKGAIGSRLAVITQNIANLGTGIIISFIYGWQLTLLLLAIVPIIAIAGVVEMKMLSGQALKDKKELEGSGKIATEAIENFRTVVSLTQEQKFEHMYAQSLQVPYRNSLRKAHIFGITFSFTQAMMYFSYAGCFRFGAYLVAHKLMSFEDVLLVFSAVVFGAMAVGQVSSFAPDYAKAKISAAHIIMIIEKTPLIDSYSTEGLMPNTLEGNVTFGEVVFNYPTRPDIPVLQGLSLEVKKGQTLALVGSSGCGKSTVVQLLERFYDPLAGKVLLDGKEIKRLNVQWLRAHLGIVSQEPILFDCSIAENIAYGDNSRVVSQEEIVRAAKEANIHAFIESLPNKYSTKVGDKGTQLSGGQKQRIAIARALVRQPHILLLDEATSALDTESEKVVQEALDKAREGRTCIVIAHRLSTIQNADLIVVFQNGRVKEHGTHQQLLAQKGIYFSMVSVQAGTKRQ

sigma-1 receptor, sequence (Q99720 whole entry, species assumed): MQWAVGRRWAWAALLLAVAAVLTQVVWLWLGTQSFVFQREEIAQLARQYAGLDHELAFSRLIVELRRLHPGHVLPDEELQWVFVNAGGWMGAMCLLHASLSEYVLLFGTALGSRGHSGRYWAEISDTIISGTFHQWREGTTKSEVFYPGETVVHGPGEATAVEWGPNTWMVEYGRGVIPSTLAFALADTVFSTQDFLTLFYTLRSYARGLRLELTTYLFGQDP

SMILES | Plasma concentration/exposure in relation to d6-DM dose of AVP-786 [1] | Changes in plasma concentrations from Week 6 to Week 12 [1] | Plasma concentration by CYP2D6 metabolizer group [1] | receptor binding (sigma-1 receptor) | Plasma concentration/exposure in relation to d6-DM dose of AVP-786 ([1]; hydrobromide) | P-glycoprotein inhibition (P-glycoprotein)
[2H]C([2H])([2H])N1CCC23CCCCC2C1Cc1ccc(O)cc13 (centres unmarked) [d3-DX, d3-dextrorphan] | generally higher; also recorded: increased with the increase in d6-DM dose | did not appear to be any significant changes | lowest in the poor metabolizer group and highest in the extensive and ultra-rapid metabolizer groups | – | – | –
C=C[C@H]1C[N@@]2CC[C@H]1C[C@@H]2[C@@H](O)c1ccnc2ccc(OC)cc12 [Q, Quinidine, reference compound] | – | did not appear to be any significant changes | – | – | – | –
[2H]C([2H])([2H])Oc1ccc2c(c1)[C@]13CCCC[C@@H]1[C@H](C2)N(C([2H])([2H])[2H])CC3 [d6-DM, deuterated [d6]-dextromethorphan hydrobromide] | – | did not appear to be any significant changes | highest in the poor and intermediate metabolizer groups and lowest in the ultra-rapid metabolizer group | binds to the sigma-1 receptor | generally higher; also recorded: increased with the increase in d6-DM dose | –
C=C[C@H]1C[N@]2CC[C@@H]1C[C@@H]2[C@@H](O)c1ccnc2ccc(OC)cc12 [Quinidine, quinidine sulfate] | – | – | – | – | – | P-glycoprotein inhibitor
[2H]C([2H])([2H])Oc1ccc2c(c1)C13CCCCC1C(C2)NCC3 (centres unmarked) [d3-3-MM, d3-3-methoxymorphinan] | – | did not appear to be any significant changes | highest in the poor and intermediate metabolizer groups and lowest in the ultra-rapid metabolizer group | – | – | –

From patent US20230270738A1, “METHODS OF TREATING AGITATION ASSOCIATED WITH ALZHEIMER'S DISEASE” (Avanir Phrmaceuticals Inc., priority 2020, published 2023)
